Reference: ChEMBL document CHEMBL5113380, “Functionalized quinoxalinones as privileged structures with broad-ranging pharmacological activities” (Eur J Med Chem, 2022)
Converted amounts (≈) assume the structure as drawn. Each block holds one molecule with its values, some of them ahead of it.

Assays:
[1] = Antioxidant activity assessed as DPPH radical scavenging activity at 10 uM; assay type: functional
[2] = Antioxidant activity assessed as DPPH radical scavenging activity; assay type: functional; settings: read-out: IC50
[3] = Inhibition of ALR1 (unknown origin) relative to control; parameters: concentration or dose not given beside the values; settings: Homo sapiens; concentration not given here
[4] = Antioxidant activity assessed as DPPH radical scavenging activity at 100 uM; assay type: functional
[5] = Inhibition of ALR2 (unknown origin); parameters: species or system Homo sapiens
[6] = Antioxidant activity assessed as DPPH radical scavenging activity at 50 uM; assay type: functional
Klebsiella pneumoniae = test: Antibacterial activity against Klebsiella pneumoniae; assay type: functional
Escherichia coli [7] = test: Antibacterial activity against Escherichia coli; assay type: functional
Pseudomonas aeruginosa = test: Antibacterial activity against Pseudomonas aeruginosa; assay type: functional
Staphylococcus aureus [8] = test: Antibacterial activity against methicillin-resistant Staphylococcus aureus; assay type: functional
Staphylococcus aureus [9] = test: Antibacterial activity against Staphylococcus aureus; assay type: functional
Candida albicans = test: Antifungal activity against Candida albicans; assay type: functional
Escherichia coli [10] = test: Antibacterial activity against Escherichia coli assessed as diameter zone of inhibition; assay type: functional
[11] = target: T1, Glutamate receptor ionotropic AMPA (Homo sapiens, UniProt P42261+P42262+P42263+P48058); test: Displacement of [3H]AMPA from AMPA receptor (unknown origin); assay type: protein-complex assay
[12] = target: Glutamate [NMDA] receptor; test: Displacement of [3H]glycine from NMDA receptor (unknown origin); assay type: protein-complex assay, Homo sapiens
[13] = target: T1, Glutamate receptor ionotropic AMPA; test: Displacement of [3H]kainate from AMPA receptor (unknown origin); assay type: protein-complex assay
[14] = Displacement of [3H]glycine from AMPA receptor (unknown origin); assay type: protein-complex assay, Homo sapiens
[15] = Inhibition of palmitate-induced lipid accumulation in human HepG2 cells relative to control; assay type: functional
Alpha amylase = target: T2, Alpha amylase (Homo sapiens, UniProt P0DUB6); test: Inhibition of alpha-amylase (unknown origin)
T2 sequence (P0DUB6 whole entry): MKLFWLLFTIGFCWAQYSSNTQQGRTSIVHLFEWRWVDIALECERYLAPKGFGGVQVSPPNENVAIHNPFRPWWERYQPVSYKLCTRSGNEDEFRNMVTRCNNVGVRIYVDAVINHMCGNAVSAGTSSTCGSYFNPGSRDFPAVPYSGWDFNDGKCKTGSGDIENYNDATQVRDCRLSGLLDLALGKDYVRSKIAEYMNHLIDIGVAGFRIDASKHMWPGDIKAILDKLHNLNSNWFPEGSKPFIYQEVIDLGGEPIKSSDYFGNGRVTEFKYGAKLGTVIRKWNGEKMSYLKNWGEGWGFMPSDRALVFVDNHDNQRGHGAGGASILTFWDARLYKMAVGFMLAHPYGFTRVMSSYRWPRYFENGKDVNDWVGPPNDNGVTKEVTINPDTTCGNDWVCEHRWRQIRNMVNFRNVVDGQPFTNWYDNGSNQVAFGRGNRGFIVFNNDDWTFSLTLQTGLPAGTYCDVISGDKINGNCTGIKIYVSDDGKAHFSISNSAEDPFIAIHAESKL

[16] = target: Human immunodeficiency virus type 1 reverse transcriptase (Human immunodeficiency virus 1) (UniProt Q72547); test: Inhibition of HIV1 reverse transcriptase at 10 uM relative to control
[17] = target: Human immunodeficiency virus type 1 reverse transcriptase (Human immunodeficiency virus 1) (UniProt Q72547); test: Inhibition of HIV1 reverse transcriptase at 100 uM relative to control
NCI-H460 = test: Antiproliferative activity against human NCI-H460 cells after 72 hrs by MTT assay; assay type: functional, cell-based; settings: NCI-H460, 72 h
HeLa 229 = test: Antiproliferative activity against human HeLa 229 cells after 72 hrs by MTT assay; assay type: functional, cell-based; settings: HeLa 229, 72 h
HCT-116 = test: Antiproliferative activity against human HCT-116 cells after 72 hrs by MTT assay; assay type: functional, cell-based; settings: HCT-116, 72 h
B16-F10 = test: Antiproliferative activity against mouse B16-F10 cells after 72 hrs by MTT assay; assay type: functional, cell-based; settings: B16-F10, 72 h
Homo sapiens = species: Homo sapiens; test: Inhibition of human TRK relative to control; parameters: concentration or dose not given beside the values; settings: concentration not given here
[18] = target: Prostaglandin G/H synthase 1 (Homo sapiens, UniProt P23219)
Chain of Prostaglandin G/H synthase 1 (P23219 whole entry): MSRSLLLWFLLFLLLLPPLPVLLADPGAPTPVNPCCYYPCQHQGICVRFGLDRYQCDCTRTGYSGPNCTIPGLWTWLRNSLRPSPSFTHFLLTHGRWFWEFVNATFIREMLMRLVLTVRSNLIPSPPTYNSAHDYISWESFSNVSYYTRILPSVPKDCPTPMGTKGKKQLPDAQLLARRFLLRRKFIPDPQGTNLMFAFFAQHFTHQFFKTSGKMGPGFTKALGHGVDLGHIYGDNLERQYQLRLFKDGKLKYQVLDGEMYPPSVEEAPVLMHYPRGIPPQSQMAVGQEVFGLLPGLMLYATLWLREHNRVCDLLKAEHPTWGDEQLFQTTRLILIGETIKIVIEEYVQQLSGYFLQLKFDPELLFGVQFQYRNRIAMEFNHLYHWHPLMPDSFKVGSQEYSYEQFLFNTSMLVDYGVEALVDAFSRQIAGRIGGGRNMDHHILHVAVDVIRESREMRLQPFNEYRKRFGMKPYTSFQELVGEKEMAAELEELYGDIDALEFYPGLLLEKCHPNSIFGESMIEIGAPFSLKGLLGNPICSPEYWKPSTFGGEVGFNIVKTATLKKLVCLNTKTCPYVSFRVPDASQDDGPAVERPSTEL

Nakaseomyces glabratus = test: Antifungal activity against Candida glabrata; assay type: functional
Candida [19] = test: Antifungal activity against Candida species isolate 1; assay type: functional
Candida [20] = test: Antifungal activity against Candida species isolate 3; assay type: functional
Candida parapsilosis = test: Antifungal activity against Candida parapsilosis; assay type: functional; settings: Lodderomyces parapsilosis
Candida tropicalis = test: Antifungal activity against Candida tropicalis; assay type: functional
Pichia kudriavzevii = test: Antifungal activity against Candida krusei; assay type: functional
Candida [21] = test: Antifungal activity against Candida species isolate 2; assay type: functional
[22] = target: Human immunodeficiency virus type 1 reverse transcriptase (Human immunodeficiency virus 1, UniProt Q72547); test: Inhibition of HIV1 reverse transcriptase

IC50 [2]: 24.1 µM
inhibition [3]: 32.6%
IC50 [5]: 419 nM
SMILES: COc1cc(/C=C/c2nc3ccccc3n(CC(=O)O)c2=O)ccc1O
Activity [1]: 39.6%
Activity [4]: 95.4%
Activity [6]: 68.8%

SMILES: CSCCc1nc2ccc(N3C(=O)CSC3c3ccc(F)cc3)cc2[nH]c1=O (stereo unspecified)
MBC (Klebsiella pneumoniae): 11.7 µM (≈ 4.86 µg/mL)
IC50 [2]: 156 µM
MBC (Escherichia coli [7]): 46.8 µM (≈ 19.4 µg/mL)
MBC (Pseudomonas aeruginosa): 70.3 µM (≈ 29.2 µg/mL)
MBC (Staphylococcus aureus [8]): 93.7 µM (≈ 38.9 µg/mL)
MBC (Staphylococcus aureus [9]): 23.4 µM (≈ 9.72 µg/mL)
MBC (Candida albicans): 35.1 µM (≈ 14.6 µg/mL)

SMILES: O=C1CN(C(=O)CNc2ccccc2O)c2ccccc2N1
diameter of the inhibition zone (DIZ) (Escherichia coli [10]): 11 mm

Ki [11]: 700 nM
Ki [12]: 13.8 µM
SMILES: Cc1cc2[nH]c(=O)c(=O)n(CC(=O)O)c2cc1C

Ki [13]: 2200 nM
Ki [14]: 37 µM
Ki [11]: 84 nM
SMILES: O=c1[nH]c2cc(-n3ccnc3)c([N+](=O)[O-])cc2[nH]c1=O [YM-90K]

SMILES: Cc1ccc2c(c1)N[C@@H](C)C(=O)N2
inhibition (INH) [15]: 50%

IC50 [11]: 7.38 µM
IC50 [12]: 1260 nM
SMILES: Oc1nc2cc(Cl)c(Cl)cc2n2ccnc12

SMILES: COc1ccc(C2SCC(=O)N2c2ccc3nc(Cc4ccc(O)cc4)c(=O)[nH]c3c2)cc1 (stereo unspecified)
IC50 [2]: 19.6 µM
MBC (Escherichia coli [7]): 21.2 µM (≈ 9.74 µg/mL)
MBC (Pseudomonas aeruginosa): 680 µM (≈ 313 µg/mL)
IC50 (Alpha amylase): 301.59 µM
MBC (Staphylococcus aureus [8]): 63.8 µM (≈ 29.3 µg/mL)
MBC (Staphylococcus aureus [9]): 15.9 µM (≈ 7.31 µg/mL)
MBC (Candida albicans): 85 µM (≈ 39.1 µg/mL)

IC50 (Alpha amylase): 492.68 µM
SMILES: COc1cccc(/C=N/Nc2nc3ccccc3[nH]c2=O)c1

IC50 [2]: 20.9 µM
inhibition [3]: 30.5%
IC50 [5]: 148 nM
SMILES: O=c1c(/C=C/c2ccc(O)c(O)c2)nc2ccccc2n1-c1cnn(O)c1
Activity [1]: 40.8%
Activity [4]: 95.6%
Activity [6]: 72.5%

IC50 [2]: 162 µM
IC50 (Alpha amylase): 356.32 µM
SMILES: CC(C)c1nc2ccc(N3C(=O)CSC3c3ccc([N+](=O)[O-])cc3)cc2[nH]c1=O (stereo unspecified)

inhibition [16]: 7%
inhibition [17]: 56%
SMILES: CC(=O)N1CC(=O)Nc2ccccc21

IC50 (NCI-H460): 9.62 µM
IC50 (HeLa 229): > 50 µM
IC50 (HCT-116): 12.3 µM
IC50 (B16-F10): 7.61 µM
SMILES: O=c1[nH]c2ccccc2nc1/C=C/c1ccccc1Br

SMILES: Cc1ccc2ncc(C)nc2c1
inhibition (INH) [15]: 20%

inhibition (Homo sapiens): 84%
IC50 [18]: > 50 µM
SMILES: Cc1nn(-c2ccccc2)c(N2CCOCC2)c1/C=N/Nc1nc2ccccc2nc1O

inhibition (Homo sapiens): 80%
IC50 [18]: > 50 µM
SMILES: CC(=O)N1CCN(c2c(/C=N/Nc3nc4ccccc4nc3O)c(C)nn2-c2ccccc2)CC1

IC50 [11]: 4.69 µM
IC50 [12]: 630 nM
SMILES: Oc1nc2cc(Cl)c(Cl)cc2n2cnnc12

MIC (Nakaseomyces glabratus): 125 µg/mL (≈ 443 µM)
MIC (Candida [19]): 15.6 µg/mL (≈ 55.3 µM)
MIC (Candida [20]): 125 µg/mL (≈ 443 µM)
MIC (Candida parapsilosis): 15.6 µg/mL (≈ 55.3 µM)
MIC (Candida tropicalis): 125 µg/mL (≈ 443 µM)
MIC (Pichia kudriavzevii): 250 µg/mL (≈ 886 µM)
MIC (Candida albicans): 8 µg/mL (≈ 28.4 µM)
MIC (Candida [21]): 125 µg/mL (≈ 443 µM)
SMILES: O=c1[nH]c2cc(C(F)(F)F)ccc2nc1C(F)(F)F

IC50 [12]: 3920 nM
SMILES: CCCc1nnc2c(O)nc3cc(Cl)c(Cl)cc3n12

inhibition [3]: 46.2%
IC50 [5]: 32 nM
SMILES: O=C(O)Cn1c(=O)c(-c2ccc(O)cc2O)nc2ccc(F)cc21
Activity [4]: 9.1%

SMILES: Cc1cccc2c1NC(=O)CN2
inhibition (INH) [15]: 50%

inhibition (Homo sapiens): 34%
IC50 [18]: > 50 µM
SMILES: Cc1nn(-c2ccccc2)c(Cl)c1/C=N/Nc1nc2ccccc2[nH]c1=O

SMILES: Cc1cnc2ccccc2n1
inhibition (INH) [15]: 20%

inhibition (Homo sapiens): 62%
IC50 [18]: > 50 µM
SMILES: Cc1nn(-c2ccccc2)c(N(C)C)c1/C=N/Nc1nc2ccccc2nc1O

MIC (Nakaseomyces glabratus): 125 µg/mL (≈ 454 µM)
MIC (Candida [19]): 62.5 µg/mL (≈ 227 µM)
MIC (Candida [20]): 500 µg/mL (≈ 1820 µM)
MIC (Candida parapsilosis): 62.5 µg/mL (≈ 227 µM)
MIC (Candida tropicalis): 500 µg/mL (≈ 1820 µM)
MIC (Pichia kudriavzevii): 125 µg/mL (≈ 454 µM)
MIC (Staphylococcus aureus [9]): 125 µg/mL (≈ 454 µM)
MIC (Candida albicans): 31.2 µg/mL (≈ 113 µM)
MIC (Candida [21]): 125 µg/mL (≈ 454 µM)
SMILES: O=c1[nH]c2cc(F)c(F)cc2nc1CBr

inhibition [16]: 37%
inhibition [17]: 64%
IC50 [22]: 64 µM
SMILES: CC(C)COC(=O)N1c2ccccc2NC(=O)[C@H]1C

inhibition [3]: 42.1%
IC50 [5]: 102 nM
SMILES: O=C(O)Cn1c(=O)c(/C=C/c2ccc(O)c(O)c2)nc2ccc(O)cc21
Activity [1]: 70.5%
Activity [4]: 96.2%
Activity [6]: 82.1%
